The source of these data is patent publication US20130217702A1 (Richter Gedeon Nyrt., priority 2010, published 2013).

Experiment [1] has as its target T1, human recombinant bradykinin B1 receptor (Homo sapiens, UniProt P46663).
T1 construct: host or cells: CHO cells, clone hB1-A5
T1 sequence (P46663 1-353): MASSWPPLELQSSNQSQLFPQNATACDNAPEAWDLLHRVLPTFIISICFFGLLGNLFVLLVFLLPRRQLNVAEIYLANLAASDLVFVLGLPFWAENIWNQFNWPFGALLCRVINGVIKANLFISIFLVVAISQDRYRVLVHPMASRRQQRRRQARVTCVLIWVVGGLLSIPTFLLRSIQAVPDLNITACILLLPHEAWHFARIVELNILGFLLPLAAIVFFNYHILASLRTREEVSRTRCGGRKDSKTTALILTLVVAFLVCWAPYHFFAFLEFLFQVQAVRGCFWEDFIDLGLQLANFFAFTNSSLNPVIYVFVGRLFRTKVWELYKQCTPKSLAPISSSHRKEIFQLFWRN
In words: Human recombinant bradykinin B1 receptor competitive radioligand binding. The settings on record: hB1 expressed in CHO cells, [3H]-[Des-Arg10] Kallidin radioligand; read-out: B1 binding. Summed up:
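Membranes from CHO cells expressing hB1 (20 μg protein/tube) incubated 15 min at 25° C. with [3,4-prolyl-3,4-^3H(N)]-[Des-Arg^10] Kallidin; nonspecific binding defined with 10 μM Lys-des-Arg^9-Bradykinin. Bound label collected by filtration and counted. IC50 from ≥7-point curves in triplicate; Ki by Cheng-Prusoff.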

Experiment [2] deals with T2, recombinant human B1 receptors (Homo sapiens, UniProt P46663).
T2 construct: host or cells: CHO (CHO-B1)
T2 sequence (P46663 1-353): T1 sequence (P46663 1-353)
In words: Functional assay: antagonist potency by cytosolic calcium measurement (plate reader fluorimeter) in CHO-B1 cells, agonist LysDABK. Type of experiment: cell-based. Conditions: CHO-B1 cells, inhibition of LysDABK (EC80)-evoked [Ca2+]i elevation; read-out: B1 func. The method in brief: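 IC50 is the concentration giving half-maximal inhibition of the LysDABK (EC80) calcium response, fitted from at least three experiments. CHO cells stably expressing human B1 were dye-loaded, exposed to compound for 20-25 min, then read by fluo-4 fluorescence (ΔF/F) at 37 °C.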

pIC50, pKi: −log10 of the molar value.

For the molecule `Cc1nnc(-c2c(Cl)c3ccccc3n2-c2ccc(CNC(=O)C3(NC(=O)CC(F)(F)F)CC3)cc2)o1` [Example 183, 1-(3,3,3-Trifluoro-propionylamino)-cyclopropanecarboxylic acid 4-[3-chloro-2-(5-methyl-[1,3,4]oxadiazol-2-yl)-indol-1-yl]-benzylamide], the pKi in experiment [1] was 7.00 to 7.70. The pIC50 in experiment [2] is 7.00 to 7.70.

As for `Cc1nc(-c2c(Cl)c3ccccc3n2-c2ccc(CNC(=O)C3(NC(=O)c4cccnc4Cl)CC3)c(F)c2)no1` [Example 104, 2-Chloro-N-(1-{4-[3-chloro-2-(5-methyl-[1,2,4]oxadiazol-3-yl)-indol-1-yl]-2-fluoro-benzylcarbamoyl}-cyclopropyl)-nicotinamide], the pKi in experiment [1] is > 7.70. In addition, in experiment [2], the pIC50 was > 7.70.

For the molecule `Cc1nc(-c2c(Cl)c3ccccc3n2-c2ccc([C@@H](C)NC(=O)C3(NC(=O)C(F)(F)F)CC3)cc2)no1` [Example 40, (R)-1-(2,2,2-Trifluoro-acetylamino)-cyclopropanecarboxylic acid (1-{4-[3-chloro-2-(5-methyl-[1,2,4]oxadiazol-3-yl)-indol-1-yl]-phenyl}-ethyl)-amide], in experiment [1], the pKi was > 7.70. Further, in experiment [2], the pIC50 was > 7.70.

On to `Cn1nnc(-c2c(Cl)c3cc(Cl)ccc3n2-c2ccc(CNC(=O)C3(NC(=O)C(F)(F)F)CC3)c(F)c2)n1` [Example 22, 1-(2,2,2-Trifluoro-acetylamino)-cyclopropanecarboxylic acid 4-[3,5-dichloro-2-(2-methyl-2H-tetrazol-5-yl)-indol-1-yl]-2-fluoro-benzylamide], for which, in experiment [1], the pKi was > 7.70. In experiment [2], the pIC50 was > 7.70.

As for `Cc1nc(-c2c(Cl)c3ccccc3n2-c2ccc([C@@H](C)NC(=O)C3(NC(=O)C(F)(F)F)CC3)c(F)c2)no1` [Example 190, 1-(2,2,2-Trifluoro-acetylamino)-cyclopropanecarboxylic acid ((R)-1-{4-[3-chloro-2-(5-methyl-[1,2,4]oxadiazol-3-yl)-indol-1-yl]-2-fluoro-phenyl}-ethyl)-amide], the pKi in experiment [1] was > 7.70. Further, the pIC50 in experiment [2] was > 7.70.

Consider `Cc1nc(-c2c(Cl)c3ccccc3n2-c2ccc(CNC(=O)C3(NC(=O)c4cc(C5CC5)on4)CC3)cc2)no1` [Example 165, 5-Cyclopropyl-isoxazole-3-carboxylic acid (1-{4-[3-chloro-2-(5-methyl-[1,2,4]oxadiazol-3-yl)-indol-1-yl]-benzylcarbamoyl}-cyclopropyl)-amide], for which the pKi in experiment [1] is > 7.70. Also, in experiment [2], the pIC50 is > 7.70.

Regarding `COc1cc(C(=O)NC2(C(=O)NCc3ccc(-n4c(-c5nnnn5C)c(Cl)c5ccccc54)cc3)CC2)on1` [Example 7, 3-Methoxy-isoxazole-5-carboxylic acid (1-{4-[3-chloro-2-(1-methyl-1H-tetrazol-5-yl)-indol-1-yl]-benzylcarbamoyl}-cyclopropyl)-amide], in experiment [1], the pKi was > 7.70. In addition, the pIC50 in experiment [2] was > 7.70.

For the molecule `Cc1nc(-c2c(Cl)c3ccccc3n2-c2ccc(CNC(=O)C3(NC(=O)c4cccc(C#N)c4)CC3)cc2)no1` [Example 146, N-(1-{4-[3-Chloro-2-(5-methyl-[1,2,4]oxadiazol-3-yl)-indol-1-yl]-benzylcarbamoyl}-cyclopropyl)-3-cyano-benzamide], in experiment [1], the pKi is > 7.70. The pIC50 in experiment [2] was > 7.70.

Regarding `COC(=O)c1c(Cl)c2c(F)cccc2n1-c1ccc(CNC(=O)C2(NC(=O)C(F)(F)F)CC2)cc1` [Example 69, 3-Chloro-4-fluoro-1-[4-({[1-(2,2,2-trifluoro-acetylamino)-cyclopropanecarbonyl]-amino}-methyl)-phenyl]-1H-indole-2-carboxylic acid methyl ester], the pKi in experiment [1] was 7.00 to 7.70. Also, the pIC50 in experiment [2] is 7.00 to 7.70.

Regarding `COc1cc(C(=O)NC2(C(=O)NCc3ccc(-n4c(-c5noc(C)n5)c(Cl)c5ccccc54)cc3F)CC2)on1` [Example 192, 3-Methoxy-isoxazole-5-carboxylic acid (1-{4-[3-chloro-2-(5-methyl-[1,2,4]oxadiazol-3-yl)-indol-1-yl]-2-fluoro-benzylcarbamoyl}-cyclopropyl)-amide], the pKi in experiment [1] was > 7.70. Besides, the pIC50 in experiment [2] was > 7.70.

Regarding `Cc1cc(C(=O)NC2(C(=O)NCc3ccc(-n4c(-c5noc(C)n5)c(Cl)c5ccccc54)cc3)CC2)n[nH]1` [Example 152, 5-Methyl-1H-pyrazole-3-carboxylic acid (1-{4-[3-chloro-2-(5-methyl-[1,2,4]oxadiazol-3-yl)-indol-1-yl]-benzylcarbamoyl}-cyclopropyl)-amide], the pKi in experiment [1] is > 7.70. The pIC50 in experiment [2] is 7.00 to 7.70.

As for `Cc1noc(-c2c(Cl)c3ccccc3n2-c2ccc(CNC(=O)C3(NC(=O)C(F)(F)F)CC3)cc2)n1` [Example 194, 1-(2,2,2-Trifluoro-acetylamino)-cyclopropanecarboxylic acid 4-[3-chloro-2-(3-methyl-[1,2,4]oxadiazol-5-yl)-indol-1-yl]-benzylamide], the pKi in experiment [1] is > 7.70. Moreover, in experiment [2], the pIC50 is > 7.70.

Consider `Cc1nc(-c2c(Cl)c3ccccc3n2-c2ccc(CNC(=O)C3(NC(=O)c4cnc5ccccc5c4)CC3)cc2)no1` [Example 159, Quinoline-3-carboxylic acid (1-{4-[3-chloro-2-(5-methyl-[1,2,4]oxadiazol-3-yl)-indol-1-yl]-benzylcarbamoyl}-cyclopropyl)-amide], for which, in experiment [1], the pKi is > 7.70. The pIC50 in experiment [2] was > 7.70.

For the molecule `COc1ccc2c(c1)c(Cl)c(-c1noc(C)n1)n2-c1ccc(CNC(=O)C2(NC(=O)c3cnc(C)cn3)CC2)cc1` [Example 129, 5-Methyl-pyrazine-2-carboxylic acid (1-{4-[3-chloro-5-methoxy-2-(5-methyl-[1,2,4]oxadiazol-3-yl)-indol-1-yl]-benzylcarbamoyl}-cyclopropyl)-amide], in experiment [1], the pKi is > 7.70. Also, the pIC50 in experiment [2] is > 7.70.

Take `COc1cc(C(=O)NC2(C(=O)NCc3ccc(-n4c(-c5noc(C)n5)cc5ccccc54)cc3)CC2)on1` [Example 195, 3-Methoxy-isoxazole-5-carboxylic acid (1-{4-[2-(5-methyl-[1,2,4]oxadiazol-3-yl)-indol-1-yl]-benzylcarbamoyl}-cyclopropyl)-amide]: in experiment [1], the pKi was > 7.70. Further, the pIC50 in experiment [2] is > 7.70.

Take `Cc1nc(-c2c(Cl)c3ccccc3n2-c2ccc(CNC(=O)C3(NC(=O)c4ccc(C#N)cc4)CC3)cc2)no1` [Example 170, N-(1-{4-[3-Chloro-2-(5-methyl-[1,2,4]oxadiazol-3-yl)-indol-1-yl]-benzylcarbamoyl}-cyclopropyl)-4-cyano-benzamide]: the pKi in experiment [1] was > 7.70. Also, in experiment [2], the pIC50 was 7.00 to 7.70.

Regarding `COC(=O)c1c(Cl)c2ccccc2n1-c1ccc(CNC(=O)C2(NC(=O)c3cc(OC)no3)CC2)cc1` [Example 11, 3-Chloro-1-{4-[({1-[(3-methoxy-isoxazole-5-carbonyl)-amino]-cyclopropane-carbonyl}-amino)-methyl]-phenyl}-1H-indole-2-carboxylic acid methyl ester], the pKi in experiment [1] is > 7.70. In addition, the pIC50 in experiment [2] is > 7.70.

Regarding `COc1ccc2c(c1)cc(-c1nc(C)no1)n2-c1ccc(CNC(=O)C2(NC(=O)c3cccnc3F)CC2)cc1` [Example 116, 2-Fluoro-N-(1-{4-[5-methoxy-2-(3-methyl-[1,2,4]oxadiazol-5-yl)-indol-1-yl]-benzylcarbamoyl}-cyclopropyl)-nicotinamide], in experiment [1], the pKi is 7.00 to 7.70. Moreover, in experiment [2], the pIC50 is 7.00 to 7.70.
